Experimental data: PubChem BioAssay (NCI)
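Tested at 5 concentrations; 48 h exposure; 96-well plates; endpoints linearly interpolated, else capped at highest concentration. Definition used: TGI = concentration required for complete inhibition of growth.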

Legend:
Assay in all cases: inhibition of tumour cell growth, NCI panel, 48 h
[1] = system: SF-268 CNS
[2] = system: MDA-MB-435
[3] = system: NCI-H23 lung
[4] = system: SW-620 colon
[5] = system: HT29 colon
[6] = system: SF-539 CNS
[7] = system: OVCAR-4 ovarian
[8] = system: SK-MEL-28 melanoma
[9] = system: NCI/ADR-RES ovarian
[10] = system: NCI-H226 lung
[11] = system: BT-549 breast
[12] = system: HOP-62 NSCLC
[13] = system: COLO 205 colon
[14] = system: M14 melanoma
[15] = system: LOX IMVI melanoma
[16] = system: HCT-116 colon
[17] = system: SK-MEL-5 melanoma
[18] = system: MCF7 breast
[19] = system: EKVX NSCLC
[20] = system: TK-10 renal
[21] = system: SNB-75 CNS
[22] = system: SN12C renal
[23] = system: IGROV1 ovarian
[24] = system: PC-3 prostate
[25] = system: RPMI-8226 leukemia
[26] = system: ACHN renal
[27] = system: UACC-257 melanoma
[28] = system: UO-31 renal
[29] = system: CAKI-1 renal
[30] = system: SK-OV-3 ovarian
[31] = system: MDA-MB-231 breast
[32] = system: OVCAR-3 ovarian
[33] = system: OVCAR-8 ovarian
[34] = system: UACC-62 melanoma
[35] = system: HL-60(TB) leukemia
[36] = system: U251 CNS
[37] = system: SNB-19 CNS
[38] = system: 786-0 renal
[39] = system: HOP-92 NSCLC
[40] = system: HCT-15 colon
[41] = system: SK-MEL-2 melanoma
[42] = system: SF-295 CNS
[43] = system: HCC-2998 colon
[44] = system: SR leukemia
[45] = system: CCRF-CEM leukemia
[46] = system: MOLT-4 leukemia
[47] = system: MDA-N
[48] = system: A549 NSCLC
[49] = system: MALME-3M melanoma
[50] = system: NCI-H460 lung
[51] = system: RXF 393 renal
[52] = system: KM12 colon
[53] = system: OVCAR-5 ovarian
[54] = system: DU-145 prostate
[55] = system: K-562 leukemia
[56] = system: HS 578T breast

Measured: TGI

O=C(OCCN=c1c2ccccc2ccc2ccccc12)c1ccccc1
> 100 µM: [1] | [2] | [3] | [4] | [5] | [6] | [7] | [8] | [9] | [10] | [11] | [12] | [13] | [14] | [15] | [16] | [17] | [18] | [19] | [20] | [21] | [22] | [23] | [24] | [25] | [26] | [27] | [28] | [29] | [30] | [31] | [32] | [33] | [34] | [35] | [36] | [37] | [38] | [39] | [40] | [41] | [42] | [43] | [44] | [45] | [46] | [47] | [48] | [49] | [50] | [51] | [52] | [53] | [54] | [55] | [56]
